Experimental data reported in patent publication US20200338039A1, “METHODS AND MATERIALS FOR ASSESSING BIOLOGICAL AGE AND SLOWING THE PROGRESS OF EXCESSIVE BIOLOGICAL AGING” (The Scripps Research Institute, priority 2017, published 2020).

Columns and labels:
mice, 85 weeks of age = assay: Late-life fisetin diet in aged mice: lifespan, tissue function, histopathology; assay type: in vivo, mouse; conditions: diet containing 500 ppm fisetin from 85 weeks of age
Protocol: At 85-weeks of age (>20 mth), male and female mice were administered a diet containing 500 ppm (500 mg/kg) fisetin or fed a control diet with no drug. n=8-9 mice per group. In the treatment group, median lifespan was increased 17% and maximum lifespan increased 12%. Log rank (Mantel-Cox) test. […] Levels of MCP-1 were measured in the serum of these mice by ELISA. n=5 mice per group. One-way ANOVA with Tukey's multiple comparison test. Values represented as the mean SEM, ***p<0.001, ****p<0.0001. Therefore, circulating levels of MCP-1 correlate with drug-induced improvements in health and lifespan (FIG. 12).

C57BL/6J mice = assay: Composite lesion scores (geropathology grading, histology) in old mice on rapamycin diet; assay type: in vivo, mouse; conditions: two year-old C57BL/6J mice; rapamycin diet 14 ppm females / 42 ppm males for two months; average
Source text: Two year-old C57BL/6J mice were fed a diet containing rapamycin (14 ppm for females or 42 ppm for males) or a control diet for two months. […] In addition, rapamycin attenuated composite lesion scores in kidneys (FIG. 7), liver, and lungs of these mice by an average of 40, 41, and 29 percent, respectively.
Two year old C57BL/6J mice were obtained from the NIA Rodent Colony and treated with encapsulated rapamycin (Rapamycin Holdings, San Antonio Tex.) at 14 ppm for females and 42 ppm for males, or control (encapsulated only) diet for 8 weeks. Mice were sacrificed at 26 months and serum collected preceding necropsy. Ercc1^−/Δ mice were treated with Dasatinib and Quercetin as described elsewhere (see, e.g., Zhu et al., 2015 Aging cell. 14(4):644-658). Briefly, Ercc1^−/Δ mice were treated weekly with a combination of Dasatinib (5 mg/kg) and Quercetin (50 mg/kg) starting at 4-6 weeks of age. Therapeutics were administered in 10% PEG400 by oral gavage. Litters with multiple Ercc1^−/Δ mice were used to enable comparison of sibling pairs that were treated with therapeutic vs vehicle only. Mice (n=5-6 per group) were sacrificed at 16 weeks and serum collected by cardiac puncture.
Mouse tissues were collected at necropsy and placed in 10% buffered formalin for 48 hours, transferred to 70% alcohol, and subsequently processed into paraffin blocks for sectioning and hematoxylin and eosin staining. Histology slides were validated for age-related lesions by a veterinary pathologist and scored for lesion severity to create a composite lesion score for age-related renal pathology in each animal (see, e.g., Ladiges 2016 Pathobiol Aging Age Relat Dis. 6:31478).

[1] = male and female mice, vs control diet

Compound	age-related histopathology (mice, 85 weeks of age)	tissue function (mice, 85 weeks of age)	increase in maximum lifespan (mice, 85 weeks of age; [1])	increase in median lifespan (mice, 85 weeks of age; [1])	attenuation of composite lesion score, kidneys (C57BL/6J mice)	attenuation of composite lesion score, liver (C57BL/6J mice)	attenuation of composite lesion score, lungs (C57BL/6J mice)
O=c1c(O)c(-c2ccc(O)c(O)c2)oc2cc(O)ccc12 [fisetin]	decreased in multiple organs	improved	12%	17%			
CO[C@H]1C[C@@H]2CC[C@@H](C)[C@@](O)(O2)C(=O)C(=O)N2CCCC[C@H]2C(=O)O[C@H]([C@H](C)C[C@@H]2CC[C@@H](O)[C@H](OC)C2)CC(=O)[C@H](C)/C=C(\C)[C@@H](O)[C@@H](OC)C(=O)[C@H](C)C[C@H](C)/C=C/C=C/C=C/1C [rapamycin]					40%	41%	29%
